This is an account of results in patent US9273053B2, “Sulfur-containing heterocyclic derivative having Beta secretase inhibitory activity” (Shionogi & Co., Ltd., priority 2008, dated 2016).

The structures appear in SMILES notation.

What is called IC50 is the midpoint of a concentration-inhibition curve.

Data set [1] deals with CYP1A2 (Homo sapiens (Human), UniProt P05177). The data set is described as follows: CYP inhibition test (CYP1A2). The conditions noted are these: pooled human hepatic microsome, 7-ethoxyresorufin O-deethylation. The data set is classed as in vitro ADME. On the procedure: (§1) After the centrifugation at 3000 rpm for 15 minutes, resorufin (CYP1A2 metabolite) in the supernatant was quantified by a fluorescent multilabel counter and tributamide hydroxide (CYP2CP metabolite), mephenyloin 4′ hydroxide (CYP2C19 metabolite), […] (CYP2D6 metabolite), and terfenadine alcohol (CYP3A4 metabolite) were quantified by LC/MS/MS. Addition of only DMSO being a solvent dissolving a drug to a reaction system was adopted as a control (100%), remaining activity (%) was calculated at each concentration of a test drug added as the solution and […] was calculated by reverse presumption by a logistic model using a concentration and an inhibition rate.
CYP1A2, sequence (P05177 whole entry): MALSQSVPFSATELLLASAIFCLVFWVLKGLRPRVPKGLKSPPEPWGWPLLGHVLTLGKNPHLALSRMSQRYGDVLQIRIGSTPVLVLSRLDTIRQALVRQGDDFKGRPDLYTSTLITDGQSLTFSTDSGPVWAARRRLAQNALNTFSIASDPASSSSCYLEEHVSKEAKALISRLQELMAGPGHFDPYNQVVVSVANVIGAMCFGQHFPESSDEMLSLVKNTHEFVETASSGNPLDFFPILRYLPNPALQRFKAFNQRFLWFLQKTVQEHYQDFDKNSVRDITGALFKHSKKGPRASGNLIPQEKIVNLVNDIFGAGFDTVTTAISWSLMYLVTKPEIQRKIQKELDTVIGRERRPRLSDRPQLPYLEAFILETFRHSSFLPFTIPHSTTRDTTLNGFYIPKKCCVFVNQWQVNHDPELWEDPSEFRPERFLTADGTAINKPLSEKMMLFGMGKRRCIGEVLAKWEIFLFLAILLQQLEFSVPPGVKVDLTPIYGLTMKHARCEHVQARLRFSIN

Data set [2] concerns the target CYP2C9 (Homo sapiens (Human), UniProt P11712). The data set is described as follows: CYP inhibition test (CYP2C9). The data set is classed as in vitro ADME. The note with it: pooled human hepatic microsome, tolbutamide methyl-hydroxylation. The protocol: as §1
Data set [3] concerns the target CYP2C19 (Homo sapiens (Human), UniProt P33261). The data set is described as follows: CYP inhibition test (CYP2C19). Format: in vitro ADME. The note with it: pooled human hepatic microsome, mephenytoin 4′-hydroxylation. On the procedure: as §1
Data set [4] has as its target CYP2D6 (Homo sapiens (Human), UniProt P10635). As to the kind of experiment: CYP inhibition test (CYP2D6). The data set is classed as in vitro ADME. The note with it: pooled human hepatic microsome, dextromethorphan O-demethylation. On the procedure: as §1
The target of data set [5] is CYP3A4 (Homo sapiens (Human), UniProt P08684). The data set is described as follows: CYP inhibition test (CYP3A4). The data set is classed as in vitro ADME. The note with it: pooled human hepatic microsome, terfenedine hydroxylation. The protocol: as §1
CYP3A4, sequence (P08684 whole entry): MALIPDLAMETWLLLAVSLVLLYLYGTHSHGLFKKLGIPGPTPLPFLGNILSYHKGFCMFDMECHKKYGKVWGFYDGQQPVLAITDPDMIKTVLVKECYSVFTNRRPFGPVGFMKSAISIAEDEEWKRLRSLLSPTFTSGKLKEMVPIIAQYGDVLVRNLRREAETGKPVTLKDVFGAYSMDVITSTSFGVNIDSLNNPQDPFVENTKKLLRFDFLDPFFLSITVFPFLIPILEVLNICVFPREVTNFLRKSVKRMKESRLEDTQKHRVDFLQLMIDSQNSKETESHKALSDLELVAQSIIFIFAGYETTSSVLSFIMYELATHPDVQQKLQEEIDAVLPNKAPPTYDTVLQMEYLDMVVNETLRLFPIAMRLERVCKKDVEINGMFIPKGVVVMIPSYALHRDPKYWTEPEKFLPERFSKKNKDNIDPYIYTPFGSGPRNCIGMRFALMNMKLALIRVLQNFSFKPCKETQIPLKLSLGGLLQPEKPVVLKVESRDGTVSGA
For data set [6], the target named is Recombinant human BACE-1 (Homo sapiens (Human), UniProt P56817). As to the kind of experiment: Assay of β-secretase-inhibiting activity. The conditions noted are these: Recombinant human BACE-1 7.4 nM, substrate peptide 18 nM, pH 5.0, 30° C. for 3 hours.
Recombinant human BACE-1, sequence (P56817 46-501): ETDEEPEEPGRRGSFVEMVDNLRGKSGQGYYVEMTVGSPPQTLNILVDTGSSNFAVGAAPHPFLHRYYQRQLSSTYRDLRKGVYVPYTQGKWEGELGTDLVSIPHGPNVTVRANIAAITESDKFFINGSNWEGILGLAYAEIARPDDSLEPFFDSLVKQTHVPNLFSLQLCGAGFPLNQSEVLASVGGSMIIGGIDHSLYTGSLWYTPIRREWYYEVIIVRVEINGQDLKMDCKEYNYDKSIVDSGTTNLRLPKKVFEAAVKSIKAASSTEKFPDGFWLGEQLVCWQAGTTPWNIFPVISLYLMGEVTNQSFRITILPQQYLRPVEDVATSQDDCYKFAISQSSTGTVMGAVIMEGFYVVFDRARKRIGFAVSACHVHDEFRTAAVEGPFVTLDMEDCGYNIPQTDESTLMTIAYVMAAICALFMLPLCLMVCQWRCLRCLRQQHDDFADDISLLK
Data set [7] addresses human ether-a-go-go related gene (hERG) channel (Homo sapiens (Human), UniProt Q12809). As to the kind of experiment: hERG test. Format: cell-based. The conditions noted are these: HEK293 cells expressing hERG channel, whole cell patch clamp, concentration not given. An excerpt:
For the purpose of assessing risk of an electrocardiogram QT interval prolongation, effects on delayed rectifier K+ current (IKr), which plays an important role in the ventricular repolarization process, was studied using HEK293 cells expressing human ether-a-go-go related gene (hERG) channel.
After a cell was retained at a membrane potential of −80 mV by whole cell patch clamp method using an automated patch clamp system (PatchXpress 7000A, Axon Instruments Inc.), IKr induced by depolarization pulse stimulation at +50 mV for 2 seconds and, further, repolarization pulse stimulation at −50 mV for 2 seconds was recorded. […] From the recording IKr, an absolute value of the tail peak current was measured based on the current value at the resting membrane potential using an analysis software (DataXpress ver. 1, Molecular Devices Corporation). Further, the % inhibition relative to the tail peak current before application of the test substance was calculated, and compared with the vehicle-applied group (0.1% dimethyl sulfoxide solution) to assess influence of the test substance on IKr.
Background: The hERG channel carries a current that helps repolarise heart muscle cells.

human ether-a-go-go related gene (hERG) channel, sequence (Q12809 whole entry): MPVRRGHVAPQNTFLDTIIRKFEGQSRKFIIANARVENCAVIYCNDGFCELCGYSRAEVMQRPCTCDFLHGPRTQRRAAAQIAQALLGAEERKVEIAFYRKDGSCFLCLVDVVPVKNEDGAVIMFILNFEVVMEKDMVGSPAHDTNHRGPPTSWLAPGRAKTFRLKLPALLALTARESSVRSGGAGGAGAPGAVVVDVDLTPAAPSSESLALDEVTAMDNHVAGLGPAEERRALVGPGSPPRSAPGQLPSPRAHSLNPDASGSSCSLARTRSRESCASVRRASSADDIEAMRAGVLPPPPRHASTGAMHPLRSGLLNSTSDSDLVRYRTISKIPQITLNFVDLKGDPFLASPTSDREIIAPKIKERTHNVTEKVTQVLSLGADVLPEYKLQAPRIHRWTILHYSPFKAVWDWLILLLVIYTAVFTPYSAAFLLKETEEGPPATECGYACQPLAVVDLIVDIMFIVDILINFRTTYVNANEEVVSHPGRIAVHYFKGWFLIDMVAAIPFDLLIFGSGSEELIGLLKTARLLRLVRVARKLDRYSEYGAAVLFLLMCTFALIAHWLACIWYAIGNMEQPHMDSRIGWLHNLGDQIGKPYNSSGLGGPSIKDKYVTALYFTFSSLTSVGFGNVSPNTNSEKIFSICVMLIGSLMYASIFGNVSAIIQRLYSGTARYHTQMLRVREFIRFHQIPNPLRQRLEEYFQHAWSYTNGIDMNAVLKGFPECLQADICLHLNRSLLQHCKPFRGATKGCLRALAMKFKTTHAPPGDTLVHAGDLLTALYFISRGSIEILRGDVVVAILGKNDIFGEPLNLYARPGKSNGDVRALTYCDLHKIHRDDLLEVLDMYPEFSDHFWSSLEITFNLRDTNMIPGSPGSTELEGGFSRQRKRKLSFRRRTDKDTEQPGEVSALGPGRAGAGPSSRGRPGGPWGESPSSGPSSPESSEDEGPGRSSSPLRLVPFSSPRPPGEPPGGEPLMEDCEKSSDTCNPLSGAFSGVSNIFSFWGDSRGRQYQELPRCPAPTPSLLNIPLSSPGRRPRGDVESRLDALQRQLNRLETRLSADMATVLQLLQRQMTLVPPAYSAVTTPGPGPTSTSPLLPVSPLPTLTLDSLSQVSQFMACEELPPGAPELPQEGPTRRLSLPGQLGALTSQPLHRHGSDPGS
CYP2C9, sequence (P11712 whole entry): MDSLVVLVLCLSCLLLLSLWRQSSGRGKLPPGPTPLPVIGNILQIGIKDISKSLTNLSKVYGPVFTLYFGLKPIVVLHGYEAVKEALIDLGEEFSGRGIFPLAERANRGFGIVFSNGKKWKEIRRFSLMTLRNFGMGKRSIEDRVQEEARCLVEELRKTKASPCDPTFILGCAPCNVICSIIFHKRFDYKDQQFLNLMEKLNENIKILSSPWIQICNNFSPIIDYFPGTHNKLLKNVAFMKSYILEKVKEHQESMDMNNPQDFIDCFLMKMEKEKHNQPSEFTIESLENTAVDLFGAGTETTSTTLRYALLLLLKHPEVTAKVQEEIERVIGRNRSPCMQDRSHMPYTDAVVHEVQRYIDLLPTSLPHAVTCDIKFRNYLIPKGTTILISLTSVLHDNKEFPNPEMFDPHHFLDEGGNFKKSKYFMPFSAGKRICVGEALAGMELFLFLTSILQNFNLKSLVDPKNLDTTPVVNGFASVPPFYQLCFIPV
CYP2D6, sequence (P10635 whole entry): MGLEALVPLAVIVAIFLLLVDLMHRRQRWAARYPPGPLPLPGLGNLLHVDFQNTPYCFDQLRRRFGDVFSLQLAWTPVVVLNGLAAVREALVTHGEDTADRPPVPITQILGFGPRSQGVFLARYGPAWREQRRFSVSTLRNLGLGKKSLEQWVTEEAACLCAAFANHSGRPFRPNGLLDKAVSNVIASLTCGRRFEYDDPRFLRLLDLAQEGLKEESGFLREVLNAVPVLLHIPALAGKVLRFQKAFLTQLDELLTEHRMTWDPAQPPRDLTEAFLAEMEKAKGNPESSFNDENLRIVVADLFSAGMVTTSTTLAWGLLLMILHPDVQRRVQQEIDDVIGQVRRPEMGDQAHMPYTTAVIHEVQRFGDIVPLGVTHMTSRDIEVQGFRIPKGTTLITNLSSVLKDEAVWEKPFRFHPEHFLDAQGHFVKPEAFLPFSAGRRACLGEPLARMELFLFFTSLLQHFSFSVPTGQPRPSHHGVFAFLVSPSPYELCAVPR
CYP2C19, sequence (P33261 whole entry): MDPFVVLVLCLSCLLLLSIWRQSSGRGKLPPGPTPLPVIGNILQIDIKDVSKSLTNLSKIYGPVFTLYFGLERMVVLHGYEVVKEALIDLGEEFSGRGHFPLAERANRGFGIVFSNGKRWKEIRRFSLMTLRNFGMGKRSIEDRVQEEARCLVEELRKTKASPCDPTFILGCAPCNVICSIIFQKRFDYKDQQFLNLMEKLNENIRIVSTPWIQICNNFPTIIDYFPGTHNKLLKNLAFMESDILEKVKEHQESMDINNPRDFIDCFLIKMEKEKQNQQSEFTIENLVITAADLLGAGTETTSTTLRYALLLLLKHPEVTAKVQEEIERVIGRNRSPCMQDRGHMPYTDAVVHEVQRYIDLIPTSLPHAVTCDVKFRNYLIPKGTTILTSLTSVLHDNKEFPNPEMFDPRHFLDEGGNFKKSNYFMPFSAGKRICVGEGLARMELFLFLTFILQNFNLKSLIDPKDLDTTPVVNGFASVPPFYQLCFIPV

Take `Cc1cc(C(=O)Nc2ccc(F)c([C@]3(C)C=CSC(N)=N3)c2)n(C)c1` [Compound 35]: the IC50 in data set [1] was over 20 µM; in data set [2], over 20 µM; in data set [3], over 20 µM; in data set [4], over 20 µM; in data set [5], over 20 µM; in data set [6] it was 0.096 µM.
As for `CNC(=O)c1ccc(-c2ccc(F)c([C@]3(C)C=CSC(N)=N3)c2)cn1` [Compound 92], the “% inhibition of IKr tail peak current” value in data set [7] came to 7.9%.
`C=C1C[C@@](C)(c2cc(NC(=O)c3cnc(OC)cn3)cnc2C)N=C(N)S1` [Compound 102]: in data set [7], the “% inhibition of IKr tail peak current” value was 2.3%.
